Experimental data: patent publication US11324832B2, “Tripartite modulators of endosomal G protein-coupled receptors” (Endosome Therapeutics, Inc., priority 2015, dated 2022)
Blank lines part the entries; values can stand above or below the molecule they belong to. Where a SMILES comes first, the peptide text is derived from it. [ ]: non-standard residue; d: D form. The star is where a group is joined. X1 = CC(C)CCC[C@@H](C)[C@H]1CC[C@H]2[C@@H]3CC[C@H]4C[C@@H](O*)CC[C@]4(C)[C@H]3CC[C@]12C; PEG4 = NCCOCCOCCOCCOCCC(=O)O; PEG3 = NCCOCCOCCOCCC(=O)O

How the values were obtained:
NK1R = NK1R (Rattus norvegicus, UniProt P14600); assay: SP-stimulated Ca2+ signaling in HEK-NK1R cells, antagonist mode; assay type: cell-based; set-up: Full length and truncated 6312 rat HA-NK1R have been described; expressed in transfected cells; host or cells: HEK293 (transient); details: SP 3 nM (EC80), HEK-NK1R cells, 30 min pre-incubation; read-out: pIC50, antagonism of SP-stimulated Ca^2+ signaling (converted)
Sequence of NK1R (P14600 whole entry, the tested form may be a part): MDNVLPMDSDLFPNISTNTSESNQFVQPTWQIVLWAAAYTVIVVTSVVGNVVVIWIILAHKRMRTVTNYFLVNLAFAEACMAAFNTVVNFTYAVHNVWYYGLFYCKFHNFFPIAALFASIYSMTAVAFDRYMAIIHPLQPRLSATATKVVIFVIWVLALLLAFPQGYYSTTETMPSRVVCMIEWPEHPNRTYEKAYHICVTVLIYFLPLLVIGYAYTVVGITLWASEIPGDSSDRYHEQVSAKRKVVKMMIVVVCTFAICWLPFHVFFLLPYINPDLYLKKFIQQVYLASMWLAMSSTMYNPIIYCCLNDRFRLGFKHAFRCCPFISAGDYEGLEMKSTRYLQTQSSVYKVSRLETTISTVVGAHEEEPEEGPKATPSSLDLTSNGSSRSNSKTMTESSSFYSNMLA
Description: [Ca^2+]i was measured as described (Jensen, D. D. et al., J Biol Chem, 2014, 289, 20283-20294). HEK293 cells transiently expressing HA-NK1R or HA-CLR/Myc-RAMP1 were loaded with Fura2-AM (2 μM).

CLR plus RAMP1 = biological target: T1, CLR plus RAMP1 (Homo sapiens, UniProt O60894+Q16602); assay: FRET ERK biosensors in HEK293 cells expressing CLR plus RAMP1; assay type: cell-based; details: endocytic inhibitor plus CGRP
T1 construct: expressed in transfected cells; host or cells: HEK293 (transient)
T1 sequence (Q16602 23-461): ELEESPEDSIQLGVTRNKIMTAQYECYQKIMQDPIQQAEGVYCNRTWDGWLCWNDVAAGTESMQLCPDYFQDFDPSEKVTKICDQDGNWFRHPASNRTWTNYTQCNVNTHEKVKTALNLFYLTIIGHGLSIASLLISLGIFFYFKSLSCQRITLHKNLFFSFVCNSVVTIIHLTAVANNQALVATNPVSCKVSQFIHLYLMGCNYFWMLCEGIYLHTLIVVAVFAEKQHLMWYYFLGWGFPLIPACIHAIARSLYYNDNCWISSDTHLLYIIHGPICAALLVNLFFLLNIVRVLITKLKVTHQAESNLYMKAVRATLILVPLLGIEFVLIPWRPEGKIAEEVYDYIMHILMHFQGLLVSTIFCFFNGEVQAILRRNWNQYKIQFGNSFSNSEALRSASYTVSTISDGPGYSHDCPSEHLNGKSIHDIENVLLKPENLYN
T1 sequence (O60894 27-148): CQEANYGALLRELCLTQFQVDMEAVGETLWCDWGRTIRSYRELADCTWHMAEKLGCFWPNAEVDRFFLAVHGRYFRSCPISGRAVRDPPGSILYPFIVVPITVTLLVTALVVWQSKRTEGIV
Description: HEK293 cells were transfected with 55 ng/well rat NK1R with N-terminal HA. 11 epitope tag (HA-NK1R) or CLR plus RAMP1 and 40 ng/well FRET biosensors. FRET was assessed 48 h after transfection, following serum restriction (0.5% FBS overnight). For experiments using clathrin or dynamin siRNA, cells were transfected with 55 ng/well rat HA-NK1R, 40 ng/well FRET biosensor and 25 nM/well scrambled, clathrin or dynamin ON-TARGETplus SMARTpool siRNA (GE Dharmacon). FRET was assessed 72 h after transfection, following serum restriction (0.5% FBS overnight). Cells were equilibrated in HBSS at 37° C. and FRET was analyzed using a GE Healthcare INCell 2000 Analyzer. For GFP/RFP emission ratio analysis, cells were sequentially excited using a FITC filter (490/20) with emission measured using dsRed (605/52) and FITC (525/36) filters, and a polychroic optimized for the FITC/dsRed filter pair (Quad4). For CFP/YFP emission ratio analysis, cells were sequentially excited using a CFP filter (430/24) with emission measured using YFP (535/30) and CFP (470/24) filters, and a polychroic optimized for the CFP/YFP filter pair (Quad3). Cells were imaged every 1 min, allowing image capture of 14 wells per minute. Baseline emission ratio images were captured for 4 min. […] Data were analyzed as described and expressed as emission ratios relative to baseline for each cell (F/F0). […]

[1] = Solubility in low DMSO for electrophysiology; assay type: physicochemical; details: low concentrations of DMSO required for electrophysiology
Description: Slices of rat spinal cord were transferred to a recording chamber and superfused with normal ACSF (2 ml·min^−1, 36° C.). […] PS2 was not soluble in the low concentrations of DMSO required for electrophysiology. Large, NKiR-positive, presumed nociceptive lamina I neurons were visually identified as described (Imlach, W. L., et al., Molecular Pharmacology, 2015, 88, 460-428). Spontaneous currents were recorded in cell-attached configuration (Multiclamp 700B, Molecular Devices, Sunnyvale, Calif.), sampled at 10 kHz, high pass filtered at 1 Hz, and capacitatively coupled action potential events were analyzed using Axograph X, V 1.4.4 (Axograph). […] Recordings were sampled at 10 kHz and filtered with a high pass filter at 1 Hz and firing rate was measured in two-minute interval bins. […] The firing time was determined as the duration of the response to last action potential. To assess synaptic transmission, whole-cell configuration recordings were made under control conditions or after exposure to Dy4 or Dy4 inact; a bipolar stimulating electrode was placed at the dorsal root entry zone, and electrically-evoked excitatory postsynaptic currents recorded as described (Imlach, W. L., et al., Molecular Pharmacology, 2015, 88, 460-428).

Compound: CC(=O)N[C@@H](CC(=O)O[C@H]1CC[C@@]2(C)[C@@H](CC[C@@H]3[C@@H]2CC[C@]2(C)[C@@H]([C@H](C)CCCC(C)C)CC[C@@H]32)C1)C(=O)NCCOCCOCCOCCOCCC(=O)NCCOCCOCCOCCC(=O)NCCOCCOCCOCCOCCC(=O)N[C@H](CCCNC(=N)N)C(=O)N1CCC[C@H]1C(=O)N[C@@H](CCCCN)C(=O)N1CCC[C@H]1C(=O)N[C@@H](CCC(N)=O)C(=O)N[C@@H](CCC(N)=O)C(=O)N[C@H](Cc1c[nH]c2ccccc12)C(=O)N[C@@H](Cc1ccccc1)C(=O)N[C@H](Cc1c[nH]c2ccccc12)C(=O)N[C@@H](CC(C)C)C(=O)N[C@@H](CC(C)C)C(N)=O [Compound 1] (Ac-D(X1)[PEG4][PEG3][PEG4][dR]PKPQQ[dW]F[dW]LL-NH2)
IC50 (NK1R): 3.63 nM

Compound: O=C(N/N=C/c1cc(O)c(O)cc1O)c1cc2ccccc2cc1O [Dy4]
effect on CGRP activation of cytosolic ERK (CLR plus RAMP1): prevented activation of nuclear but not cytosolic ERK
effect on CGRP activation of nuclear ERK (CLR plus RAMP1): prevented activation of nuclear but not cytosolic ERK

solubility [1]: not soluble
Compound: O=C1NC(=NS(=O)(=O)c2cccc3ccccc23)S/C1=C\c1ccc(Br)cc1 [PS2]
